Several values for one entry are separate records, joined by “and”; a condition that tells them apart may be missing. Identical values can stand only once.
Experiments:
patients with tinnitus = settings: cited from earlier work; for improvement of tinnitus: literature studies, only baclofen and caroverine double blind placebo-controlled
GABA reuptake sites = settings: rats; cited from earlier work
[1] = tested on: patients with sensorineural tinnitus; experiment: randomized double-blind placebo-controlled clinical trial of acamprosate in tinnitus; type: in vivo, human; parameters: key to tinnitus scale, Mean / tinnitus scale, Median / tinnitus scale, Minimum / tinnitus scale, Maximum: tinnitus disturbance score, 0 to 10 (0.5 steps allowed)
Experimental: We selected 50 patients with tinnitus seen at OTOSUL, Otorrinolaringologia Sul-fluminense, Hospital São Camilo, Volta Redonda, R J, between October 2003 and October 2004. The inclusion criteria were tinnitus of sensorineural etiology, excluding the cases of external and middle ear disease and concomitant temporomandibular joint disorders. Pure tone audiometry, vocal audiometry and immittanciometry were performed in all patients, and we excluded those with conductive and mixed hearing loss and those with tympanogram curve types A-r, A-d, C and B. The audiometer used was AMPLAID A 177 PLUS, and the Immittanciometer was AMPLAID 750. We considered the thresholds up to 25 dB (normal hearing), 26 to 40 dB (mild loss), 41 to 70 dB (moderate loss), 71 to 90 dB (severe loss) and over 90 dB (profound loss).
The patients were classified according to the following parameters:
age, gender, continuous or intermittent tinnitus, uni or bilateral tinnitus, tinnitus characteristics (type of associated noise), time of tinnitus, associated symptoms (hypo and hyper loss, dizziness, ear fullness), probable tinnitus etiology, previous use of drugs to treat tinnitus, and baseline tinnitus score, given by the patient, ranging from 0 to 10, according to how much it disturbed the patient
Patients were asked to score tinnitus from 1 to 10 according to how much they were disturbed by it. We allowed 0.5 scores as well.
Patients were randomly divided into 2 groups of 25 patients: one group received acamprosate 333 mg, TID, and the other received placebo, TID, both groups for 90 days. All details of the study were clarified to the patients by the assistant physician and they all signed the informed consent term. It was a double-blind study approved by the Medical Ethical Committee, Hospital São Camilo.
Patients were analyzed at days 30, 60 and 90 after use of the drug and at each visit, the patient scored the tinnitus status, as well as reported side effects.
The statistical analysis was performed based on the following methods:
t Student test for independent samples or the Mann-Whitney test to compare quantitative data between the two groups (acamprosate and placebo) chi-square test or Fisher exact test to compare qualitative data, Friedman Variance Analysis to analyze the progression of tinnitus scale (quantitative data) throughout time (four assessments within 3 months) with the treatment with acamprosate and placebo.
The test of multiple comparisons based on the statistics of Friedman was applied to identify which moments were different. The test of multiple comparisons is a test complementary to Variance Analysis.
The criterion for determination of significance was adopted as 5%, that is, when p value of the statistical test was smaller or equal to 0.05, meaning there was statistical significance. The statistical analysis was processed by the statistical software SAS System.

[2] = acamprosate 333 mg TID, 90 days, n=23

NC(=O)N1c2ccccc2C=Cc2ccccc21 [carbamazepine]
improvement, % of the cases of tinnitus (patients with tinnitus; progressively increasing doses of 50 to 600 mg a day, defined by positive lidocaine test): 50%

O=C1CN=C(c2ccccc2Cl)c2cc([N+](=O)[O-])ccc2N1 [clonazepam]
improvement of tinnitus (patients with tinnitus): 32%

CCN(CC)CCn1c(=O)c(Cc2ccc(OC)cc2)nc2ccccc21 [caroverine]
improvement of tinnitus (patients with tinnitus): 63.3%

NCC(CC(=O)O)c1ccc(Cl)cc1 (stereo not drawn) [baclofen]
improvement of tinnitus (patients with tinnitus): about 9.7%

COc1ccc(CN2CCNCC2)c(OC)c1OC [trimetazidine]
improvement of tinnitus (patients with tinnitus): 89%

c1cnc(N2CCN(Cc3ccc4c(c3)OCO4)CC2)nc1 [piribedil]
improvement of tinnitus (patients with tinnitus): 92.6%

CC(=O)NCCCS(=O)(=O)O [acamprosate, calcium acetyl-homotaurinate]
effect on GABA reuptake sites and GABA transmission (GABA reuptake sites): increases the number of reuptake sites of GABA
tinnitus scale, Maximum ([1]; Baseline, n=23): 10
tinnitus scale, Mean ([1]; Baseline, n=23): 6.74
tinnitus scale, Median ([1]; Baseline, n=23): 7
tinnitus scale, Minimum ([1]; Baseline, n=23): 3
tinnitus scale, Maximum ([1]; Score 30 d, 333 mg TID, n=23): 10
tinnitus scale, Mean ([1]; Score 30 d, 333 mg TID, n=23): 5.39
tinnitus scale, Median ([1]; Score 30 d, 333 mg TID, n=23): 5
tinnitus scale, Minimum ([1]; Score 30 d, 333 mg TID, n=23): 2
tinnitus scale, Maximum ([1]; Score 60 d, 333 mg TID, n=23): 9
tinnitus scale, Mean ([1]; Score 60 d, 333 mg TID, n=23): 3.98
tinnitus scale, Median ([1]; Score 60 d, 333 mg TID, n=23): 4
tinnitus scale, Minimum ([1]; Score 60 d, 333 mg TID, n=23): 0
tinnitus scale, Maximum ([1]; Score 90 d, 333 mg TID, n=23): 10
tinnitus scale, Mean ([1]; Score 90 d, 333 mg TID, n=23): 2.87
tinnitus scale, Median ([1]; Score 90 d, 333 mg TID, n=23): 2
tinnitus scale, Minimum ([1]; Score 90 d, 333 mg TID, n=23): 0
worsening in score ([1]; acamprosate 333 mg TID, 90 days): no worsening in score has been observed
severity of observed side effects ([1]; acamprosate 333 mg TID, 90 days, epigastralgia, choking): mild
patients who did not report improvement [1, 2]: 13.04%
patients who reported improvement below 50% [1, 2]: 39.13%
subjects who reported that tinnitus had disappeared [1, 2]: 13.04%
incidence of side effects ([1]; acamprosate 333 mg TID, 90 days, placebo 20%, p=0.35): 12%
proportion of improvement at 90 days equal or greater than 50% ([1]; acamprosate 333 mg TID, 90 days, subjective tinnitus score, placebo 11.1%, p=0.012): 47.8% and 47.83%
patients who interrupted treatment before the end of assessment ([1]; acamprosate group of 25, placebo 7): 2
patients who suspended treatment owing to side effects ([1]; acamprosate group, 50% of those who interrupted): One
variation of tinnitus scale as a result of time (Friedman Variance Analysis) ([1]; baseline, 30, 60, 90 days, 333 mg TID, p<0.0001): significant decrease

Source: US20100179220A1, “METHOD FOR THE TREATMENT OF TINNITUS” (Merck Patent GmbH, priority 2006, published 2010)
